Measurements reported in patent US20220305019A1, “PARAXANTHINE-BASED COMPOSITIONS FOR PROMOTING WEIGHT LOSS” (Ingenious Ingredients, LP, priority 2021, published 2022).

Key:
Format in all cases: in vivo, human
[1] = Confidence visual analog scale (VAS) after oral ingestion, crossover, two participants; set-up: Confidence (Visual Analog Scale) / Confidence VAS MEAN: scale not given here; conditions: for Confidence (Visual Analog Scale) / Confidence VAS MEAN / Confidence VAS mean Δ vs. 100 mg PX / Confidence VAS mean Δ vs. PLA: 200 mg Caffeine
Procedure: (§1) All supplements were orally ingested with 8 fluid ounces of cold tap water. The order of administration for all interventions was randomized using a random allocation software to ensure randomization and to avoid order effects. After ingestion, participants completed all assessments in an identical fashion 30, 60, 90, 120, and 180 minutes after ingestion of their assigned supplement. All study visits took place between 0600-1000 hours. At least 72 hours of rest took place between each condition.

[2] = Swagger visual analog scale (VAS) after oral ingestion, crossover, two participants; conditions: 200 mg Caffeine
Procedure: as §1

[3] = Appetite visual analog scale (VAS) after oral ingestion, crossover, two participants; conditions: 200 mg CA; for Appetite Visual Analog Scale MEAN: mean 30-180 min
Procedure: All supplements were orally ingested with 8 fluid ounces of cold tap water. The order of administration for all interventions was randomized using a random allocation software to ensure randomization and to avoid order effects. […] All study visits took place between 0600-1000 hours. At least 72 hours of rest will take place between each condition.

Cn1c(=O)c2c(ncn2C)n(C)c1=O [CA, caffeine, reference compound]
Confidence (Visual Analog Scale) ([1]; 30 min, person one): 80 | Confidence (Visual Analog Scale) ([1]; 30 min, person two): 74 | Confidence (Visual Analog Scale) ([1]; 60 min, person one): 91 | Confidence (Visual Analog Scale) ([1]; 60 min, person two): 76 | Confidence (Visual Analog Scale) ([1]; 90 min, person one): 71 | Confidence (Visual Analog Scale) ([1]; 90 min, person two): 66 | Confidence (Visual Analog Scale) ([1]; 120 min, person one): 80 | Confidence (Visual Analog Scale) ([1]; 120 min, person two): 70 | Confidence (Visual Analog Scale) ([1]; 180 min, person one): 90 | Confidence (Visual Analog Scale) ([1]; 180 min, person two): 65 | Confidence VAS MEAN ([1]; Average of both): 76.3 | Confidence VAS MEAN ([1]; person one): 82.4 | Confidence VAS mean Δ vs. 100 mg PX ([1]; person one): +0.4 | Confidence VAS mean Δ vs. PLA ([1]; person one): +1 | Confidence VAS MEAN ([1]; person two): 70.2 | Confidence VAS mean Δ vs. 100 mg PX ([1]; person two): +0.2 | Confidence VAS mean Δ vs. PLA ([1]; person two): −0.8 | effect on confidence ([1]; 200 mg of CA): failed to increase confidence | Swagger (Visual Analog Scale) ([2]; 30 min, person one): 64 | Swagger (Visual Analog Scale) ([2]; 30 min, person two): 65 | Swagger (Visual Analog Scale) ([2]; 60 min, person one): 56 | Swagger (Visual Analog Scale) ([2]; 60 min, person two): 62 | Swagger (Visual Analog Scale) ([2]; 90 min, person one): 51 | Swagger (Visual Analog Scale) ([2]; 90 min, person two): 62 | Swagger (Visual Analog Scale) ([2]; 120 min, person one): 61 | Swagger (Visual Analog Scale) ([2]; 120 min, person two): 59 | Swagger (Visual Analog Scale) ([2]; 180 min, person one): 44 | Swagger (Visual Analog Scale) ([2]; 180 min, person two): 69 | Swagger VAS mean Δ vs. 100 mg PX ([2]; person one): −31.0 | Swagger VAS mean Δ vs. PLA ([2]; person one): −23.4 | Swagger VAS MEAN ([2]; person two): 63.4 | Swagger VAS mean Δ vs. 100 mg PX ([2]; person two): −10.0 | Swagger VAS mean Δ vs. PLA ([2]; person two): +10.0 | reduction in appetite compared to placebo [3]: 2.4% | Appetite Visual Analog Scale ([3]; 30 min, person one): 70 | Appetite Visual Analog Scale ([3]; 30 min, person two): 50 | Appetite Visual Analog Scale ([3]; 60 min, person one): 100 | Appetite Visual Analog Scale ([3]; 60 min, person two): 60 | Appetite Visual Analog Scale ([3]; 90 min, person one): 100 | Appetite Visual Analog Scale ([3]; 90 min, person two): 61 | Appetite Visual Analog Scale ([3]; 120 min, person one): 100 | Appetite Visual Analog Scale ([3]; 120 min, person two): 65 | Appetite Visual Analog Scale ([3]; 180 min, person one): 100 | Appetite Visual Analog Scale ([3]; 180 min, person two): 70 | Appetite Visual Analog Scale MEAN ([3]; Average of both): 77.6 | Appetite Visual Analog Scale MEAN ([3]; person one): 94.0 | Appetite Visual Analog Scale MEAN ([3]; person two): 61.2 | Appetite VAS mean Δ vs. 100 mg PX ([3]; person one): +65.0 | Appetite VAS mean Δ vs. 300 mg PX ([3]; person one): +66.8 | Appetite VAS mean Δ vs. PLA ([3]; person one): −0.2 | Appetite VAS mean Δ vs. 100 mg PX ([3]; person two): −12.8 | Appetite VAS mean Δ vs. 300 mg PX ([3]; person two): −2.8 | Appetite VAS mean Δ vs. PLA ([3]; person two): −12.0
